Where a name gives a salt, the structure may show the parent alone. Read-outs that look alike come from different tables or passages of the source.
Tests used:
[1] = molecular target: T1, SARS-CoV-2 Main protease (M^pro) (Severe acute respiratory syndrome coronavirus 2, UniProt P0DTD1); assay: biochemical; assay type: binding
[2] = molecular target: T1, SARS-CoV-2 Main protease (M^pro); assay type: binding
SARS-CoV-2 [3] = assay type: cell-based
SARS-CoV-2 [4] = assay: Treatment points; assay type: cell-based; conditions: Vero cells, 48 h
[5] = screen of 156 drugs and natural compounds
[6] = relative to M^pro alone (53.5 ± 1 °C)
[7] = compound 8, relative to H2–2/8/9

For `CCCCc1nc(Cl)c(CO)n1Cc1ccc(-c2ccccc2-c2nn[nH]n2)cc1` [Compound 3, Losartan potassium], the Kd [1] was roughly 64 µM, the “Relative STD saturation, H2–7” value ([2]; compound 3, largest STD integral, reference) was 100% and the “Relative STD saturation, H2–8” value ([2]; compound 3, relative to H2–7) was 45.22%. The “Relative STD saturation, H2–9” value ([2]; compound 3, relative to H2–7) was 42.15%, the “Relative STD saturation, H3–10” value ([2]; compound 3, relative to H2–7) was 31.49% and the “Interaction with M^pro in STD-NMR spectroscopy” value (“Interaction with M^pro” for short) [2, 5] was “interacting”. The “% Reduction in viral plaques” value (SARS-CoV-2 [3]; 83 μM, Vero cells) was 54.54%.
With `C[C@@H]1C[C@H]2[C@@H]3CCC4=CC(=O)C=C[C@]4(C)[C@@]3(F)[C@@H](O)C[C@]2(C)[C@@]1(O)C(=O)CO` [Compound 12, Dexamethasone] the “Modulation of Tm of M^pro” value [1, 6] was “+2.9 °C”, the “Relative STD saturation, Ha-6” value ([2]; compound 12, highest STD integral, reference) was 100% and the “Relative STD saturation, Ha-7” value ([2]; compound 12, relative to Ha-6) was 58.8%. The “Relative STD saturation, Hb-6” value ([2]; compound 12, relative to Ha-6) was 54.8%, the “Relative STD saturation, Hb-7” value ([2]; compound 12, relative to Ha-6) was 18.77% and the “Relative STD saturation, methyl H3–19” value ([2]; compound 12, relative to Ha-6) was 4.13%. For the same compound, the “% Reduction in viral plaques” value (SARS-CoV-2 [3]; 83 μM, Vero cells) was 77.27%.
For `COc1ccc([C@@H]2Sc3ccccc3N(CCN(C)C)C(=O)[C@@H]2OC(C)=O)cc1` [Compound 1, Diltiazem hydrochloride], the Kd [1] was roughly 44 µM, the “Relative STD saturation, C-4 methyl protons (H3–4)” value ([2]; compound 1, largest STD integral, reference) was 100% and the “Relative STD saturation, H3–28/H3–29” value ([2]; compound 1, relative to H3–4) was 31.99%. For the same compound, the “Interaction with M^pro” value [2, 5] was “interacting”, the “Therapeutic Effect, Log10 of Fold Change” value (SARS-CoV-2 [4]; 42.5 μM) was 2.00 and the “Therapeutic Effect, Log10 of Fold Change” value (SARS-CoV-2 [4]; 83 μM) was 2.02. The “% Reduction in viral plaques” value (SARS-CoV-2 [3]; 83 μM, Vero cells) was 81–88%.
With `CC(C(=O)O)c1ccc(-c2ccccc2)c(F)c1` (centres unmarked) [Compound 7, Flurbiprofen] the Kd [1] was roughly 66 µM, the “Relative STD saturation, methyl H-1” value ([2]; compound 7, highest integral, reference) was 100% and the “Relative STD saturation, H-2” value ([2]; compound 7, relative to H-1) was 44.10%. The “Interaction with M^pro” value [2, 5] was “interacting” and the “% Reduction in viral plaques” value (SARS-CoV-2 [3]; 83 μM, Vero cells) was 59.09%.
With `COc1ccc2c(c1)[C@]13CCCC[C@@H]1[C@H](C2)N(C)CC3` [Compound 9, Dextromethorphan] the “Relative STD saturation, 2H-16” value ([2]; compound 9, reference proton) was “highest saturation”, the “Relative STD saturation, H-6” value ([2]; compound 9, relative to 2H-16) was 95% and the “Relative STD saturation, aromatic H-10” value ([2]; compound 9, relative to 2H-16) was 70.6%. For the same compound, the “Relative STD saturation, methyl 3H-18” value ([2]; compound 9, relative to 2H-16) was 30.8%, the “Relative STD saturation, methyl 3H-20” value ([2]; compound 9, relative to 2H-16) was 12.8% and the “Interaction with M^pro” value [2, 5] was “interacting”. The “Therapeutic Effect, Log10 of Fold Change” value (SARS-CoV-2 [4]; 83 μM) was 2.11 and the “% Reduction in viral plaques” value (SARS-CoV-2 [3]; 83 μM, Vero cells) was 81–88%.
`CCN(CC)CCCC(C)Nc1ccnc2cc(Cl)ccc12` (centres unmarked) [Compound 11, Chloroquine phosphate] was tested, and the “% Reduction in viral plaques” value (SARS-CoV-2 [3]; 41.5 μM, Vero cells) was 63.2% and the “% Reduction in viral plaques” value (SARS-CoV-2 [3]; 83 μM, Vero cells) was 100%.
For `CCC(CC)COC(=O)[C@H](C)N[P@](=O)(OC[C@H]1O[C@@](C#N)(c2ccc3c(N)ncnn23)[C@H](O)[C@@H]1O)Oc1ccccc1` [Compound 13, Remdesivir], the “Relative STD saturation, H-37” value ([2]; compound 13, highest STD integral, reference) was 100%, the “Relative STD saturation, H-18/H-22” value ([2]; compound 13, relative to H-37) was 64.95% and the “Relative STD saturation, H-19/H-21” value ([2]; compound 13, relative to H-37) was 69.88%. The “Relative STD saturation, H-20” value ([2]; compound 13, relative to H-37) was 55.82%, the “Relative STD saturation, H-34” value ([2]; compound 13, relative to H-37) was 78.86% and the “Relative STD saturation, H-35” value ([2]; compound 13, relative to H-37) was 80.79%. For the same compound, the “% Reduction in viral plaques” value (SARS-CoV-2 [3]; 83 μM, Vero cells) was 81–88%.
`NC12CC3CC(CC(C3)C1)C2` [Compound 8, Amantadine hydrochloride] was tested, and the “Modulation of Tm of M^pro” value [1, 6] was “+2.9 °C”, the “Relative STD saturation, H2–2, H2–8, H2–9” value ([2]; compound 8, highest STD integral, reference) was 100% and the “Relative STD saturation, H2–4, H2–6, H2–10” value [2, 7] was 59–64%. The “Relative STD saturation, H-3, H-5, H-7” value [2, 7] was 78%, the “Interaction with M^pro” value [2, 5] was “interacting” and the “% Reduction in viral plaques” value (SARS-CoV-2 [3]; 83 μM, Vero cells) was 77.27%.
For `Cc1cccc(C)c1OCC(C)N` (centres unmarked) [Compound 4, Mexiletine hydrochloride], the Kd [1] was roughly 21 µM, the “Modulation of Tm of M^pro” value [1] was “+2.9 °C” and the “Interaction with M^pro” value [2] was “interacting”. The “Relative STD saturation, H-6/H-8” value [2] was 86.87%, the “Relative STD saturation, aromatic H-7” value [2] was 100% and the “Relative STD saturation, methyl H-3” value [2] was 20%. For the same compound, the “% Reduction in viral plaques” value (SARS-CoV-2 [3]) was 75.5%.
In the case of `Cc1cccc(Nc2ccccc2C(=O)O)c1C` [Compound 2, Mefenamic acid], the Kd [1] is reported as roughly 15 µM, the “Modulation of Tm of M^pro” value [1, 6] is reported as “+2.9 °C” and the “Relative STD saturation, H3–16” value ([2]; compound 2, largest STD integral, reference) is reported as 100%. The “Relative STD saturation, H3–15” value ([2]; compound 2, relative to H3–16) was 90.7%, the “Interaction with M^pro” value [2, 5] was “interacting” and the “% Reduction in viral plaques” value (SARS-CoV-2 [3]; 83 μM, Vero cells) was 81–88%.

Source: article PMC9896891 (International Journal of Biological Macromolecules, 2023)
